# Laboratory results from US10597388B2, “Pyridazinone herbicides” (FMC CORPORATION, priority 2014, dated 2020).
# How the values were obtained:
# Format in all cases: in vivo
# [1] = tested on: sedge, umbrella (small-flower umbrella sedge, Cyperus difformis); experiment: Test B flooded paddy test; conditions: 250 g ai/ha, Flood; visual rating on scale of 0 to 100 where 0 is no effect and 100 is complete control; 13 to 15 d after treatment
# Summary of the method: (§1)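 Ratings use a 0-100 visual scale, where 100 is complete control, and compare treated plants with controls after 13 to 15 d of greenhouse growth. Compound went straight into paddy water kept 3 cm over the soil surface, applied to seedlings at the 2-leaf stage.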
# rice (Oryza sativa) = experiment: Test B flooded paddy test; conditions: 250 g ai/ha, Flood; visual rating on scale of 0 to 100 where 0 is no effect and 100 is complete control; 13 to 15 d after treatment
# Summary of the method: as §1
# [2] = tested on: barnyardgrass (Echinochloa crus-galli); experiment: Test B flooded paddy test; conditions: 250 g ai/ha, Flood; visual rating on scale of 0 to 100 where 0 is no effect and 100 is complete control; 13 to 15 d after treatment
# Summary of the method: as §1
# [3] = tested on: ducksalad (Heteranthera limosa); experiment: Test B flooded paddy test; conditions: 250 g ai/ha, Flood; visual rating on scale of 0 to 100 where 0 is no effect and 100 is complete control; 13 to 15 d after treatment
# Summary of the method: as §1
# [4] = tested on: galium (catchweed bedstraw, Galium aparine); experiment: Test A greenhouse herbicide test, postemergence; conditions: for Galium plant response rating: 1000 g ai/ha, 0 is no effect, 100 is complete control
# Summary of the method: (§2)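 Scores are visual injury ratings from 0 (no effect) to 100 (complete control) versus untreated plants, taken roughly 10 d after treatment in the greenhouse. Treatment was postemergence, on one- to two-leaf plants 2–10 cm high growing in a loam soil/sand mix.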
# [5] = tested on: blackgrass (Alopecurus myosuroides); experiment: Test A greenhouse herbicide test, postemergence; conditions: for Blackgrass plant response rating: 1000 g ai/ha, 0 is no effect, 100 is complete control
# Summary of the method: as §2
# [6] = tested on: ryegrass, Italian (Italian ryegrass, Lolium multiflorum); experiment: Test A greenhouse herbicide test, pre- and postemergence; conditions: for Ryegrass, Italian plant response rating: 0 is no effect, 100 is complete control
# Summary of the method: (§3)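 Visual injury ratings, 0 (no effect) to 100 (complete control), versus untreated plants after roughly 10 d in a greenhouse. Compounds, formulated in a surfactant-containing non-phytotoxic solvent, were sprayed on loam–sand soil after sowing (pre) or on one- to two-leaf plants 2–10 cm tall (post).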
# corn (Zea mays) = experiment: as above; conditions: Postemergence; for Corn plant response rating: 1000 g ai/ha, 0 is no effect, 100 is complete control
# Summary of the method: as §3
# [7] = tested on: barnyardgrass (Echinochloa crus-galli); experiment: as above; conditions: for Barnyardgrass plant response rating: 0 is no effect, 100 is complete control
# Summary of the method: as §3
# [8] = tested on: pigweed (Amaranthus retroflexus); experiment: as above; conditions: for Pigweed plant response rating: 0 is no effect, 100 is complete control
# Summary of the method: as §3
# [9] = tested on: wheat (Triticum aestivum); experiment: as above; conditions: Postemergence; for Wheat plant response rating: 1000 g ai/ha, 0 is no effect, 100 is complete control
# Summary of the method: as §3
# [10] = tested on: ragweed (common ragweed, Ambrosia elatior); experiment: as above; conditions: for Ragweed plant response rating: 0 is no effect, 100 is complete control
# Summary of the method: as §3
# [11] = tested on: foxtail, giant (giant foxtail, Setaria faberii); experiment: as above; conditions: for Foxtail, Giant plant response rating: 0 is no effect, 100 is complete control
# Summary of the method: as §3
# kochia (Kochia scoparia) = experiment: as above; conditions: for Kochia plant response rating: 0 is no effect, 100 is complete control
# Summary of the method: as §3
# [12] = Postemergence, 1000 g ai/ha, 0 to 100 scale
# [13] = Preemergence, 1000 g ai/ha, 0 to 100 scale, 0 no effect, 100 complete control
# [14] = 125 g ai/ha, 0 to 100 scale, 0 no effect, 100 complete control
# [15] = 500 g ai/ha, visual rating after approx. 10 d, 0 to 100 scale (0 no effect, 100 complete control)
# [16] = Postemergence, 125 g ai/ha, 0 to 100 scale, 0 no effect, 100 complete control
# [17] = Postemergence, 500 g ai/ha, visual rating after approx. 10 d, 0 to 100 scale (0 no effect, 100 complete control)
# [18] = Preemergence, 125 g ai/ha, visual injury rating, 0 to 100 scale (0 no effect, 100 complete control), approx. 10 d
# [19] = Preemergence, 500 g ai/ha, 0 to 100 scale where 0 is no effect and 100 is complete control
smiles,measurement,setting,value
Cc1nn(C)c(=O)c(-c2cccc3ccccc23)c1OC(=O)C=Cc1ccccc1 [Compound 183],"Plant response rating, Sedge, Umbrella",[1],0
same,"Plant response rating, Rice",rice (Oryza sativa),0
same,"Plant response rating, Barnyardgrass",[2],0
same,"Plant response rating, Ducksalad",[3],0
same,Galium plant response rating,[4]; 0 to 100 scale,90
same,Blackgrass plant response rating,[5]; 0 to 100 scale,80
same,"Ryegrass, Italian plant response rating",[6]; [12],100
same,"Plant response rating, Ryegrass, Italian",[6]; [13],90
same,Corn plant response rating,corn (Zea mays); 0 to 100 scale,10
same,Barnyardgrass plant response rating,[7]; [12],40
same,"Plant response rating, Barnyardgrass",[7]; [13],40
same,Pigweed plant response rating,[8]; [12],90
same,"Plant response rating, Pigweed",[8]; [13],90
same,Wheat plant response rating,[9]; 0 to 100 scale,0
same,Ragweed plant response rating,[10]; [12],70
same,"Plant response rating, Ragweed",[10]; [13],80
same,"Foxtail, Giant plant response rating",[11]; [12],70
same,"Plant response rating, Foxtail, Giant",[11]; [13],60
same,Kochia plant response rating,kochia (Kochia scoparia); [12],90
same,"Plant response rating, Kochia",kochia (Kochia scoparia); [13],70
Cc1nn(C)c(=O)c(-c2cccc3ccccc23)c1OCC(=O)c1ccccc1 [Compound 184],"Plant response rating, Sedge, Umbrella",[1],0
same,"Plant response rating, Rice",rice (Oryza sativa),0
same,"Plant response rating, Barnyardgrass",[2],0
same,"Plant response rating, Ducksalad",[3],0
same,Galium plant response rating,[4]; 0 to 100 scale,90
same,Blackgrass plant response rating,[5]; 0 to 100 scale,30
same,"Ryegrass, Italian plant response rating",[6]; [12],80
same,"Plant response rating, Ryegrass, Italian",[6]; [13],90
same,Corn plant response rating,corn (Zea mays); 0 to 100 scale,0
same,Barnyardgrass plant response rating,[7]; [12],20
same,"Plant response rating, Barnyardgrass",[7]; [13],10
same,Pigweed plant response rating,[8]; [12],80
same,"Plant response rating, Pigweed",[8]; [13],90
same,Wheat plant response rating,[9]; 0 to 100 scale,0
same,Ragweed plant response rating,[10]; [12],30
same,"Plant response rating, Ragweed",[10]; [13],70
same,"Foxtail, Giant plant response rating",[11]; [12],20
same,"Plant response rating, Foxtail, Giant",[11]; [13],30
same,Kochia plant response rating,kochia (Kochia scoparia); [12],80
same,"Plant response rating, Kochia",kochia (Kochia scoparia); [13],20
Cc1nn(C)c(=O)c(-c2ccc(Cl)c3ccccc23)c1OS(=O)(=O)N(C)C [Compound 185],"Plant response rating, Sedge, Umbrella",[1],0
same,"Plant response rating, Rice",rice (Oryza sativa),0
same,"Plant response rating, Barnyardgrass",[2],0
same,"Plant response rating, Ducksalad",[3],0
same,"Plant response rating, Galium",[4]; [14],70
same,"Plant response rating, Galium",[4]; [15],90
same,"Plant response rating, Blackgrass",[5]; [14],0
same,"Plant response rating, Blackgrass",[5]; [15],20
same,"Plant response rating, Ryegrass, Italian",[6]; [16],70
same,"Plant response rating, Ryegrass, Italian",[6]; [17],80
same,"Plant response rating, Ryegrass, Italian",[6]; [18],0
same,"Plant response rating, Ryegrass, Italian",[6]; [19],40
same,"Plant response rating, Corn",corn (Zea mays); [14],0
same,"Plant response rating, Corn",corn (Zea mays); [15],30
same,"Plant response rating, Barnyardgrass",[7]; [16],10
same,"Plant response rating, Barnyardgrass",[7]; [17],30
same,"Plant response rating, Barnyardgrass",[7]; [18],0
same,"Plant response rating, Barnyardgrass",[7]; [19],50
same,"Plant response rating, Pigweed",[8]; [16],50
same,"Plant response rating, Pigweed",[8]; [17],90
same,"Plant response rating, Pigweed",[8]; [18],20
same,"Plant response rating, Pigweed",[8]; [19],60
same,"Plant response rating, Wheat",[9]; [14],0
same,"Plant response rating, Wheat",[9]; [15],0
same,"Plant response rating, Ragweed",[10]; [16],10
same,"Plant response rating, Ragweed",[10]; [17],50
same,"Plant response rating, Ragweed",[10]; [18],0
same,"Plant response rating, Ragweed",[10]; [19],40
same,"Plant response rating, Foxtail, Giant",[11]; [16],0
same,"Plant response rating, Foxtail, Giant",[11]; [17],20
same,"Plant response rating, Foxtail, Giant",[11]; [18],0
same,"Plant response rating, Foxtail, Giant",[11]; [19],30
same,"Plant response rating, Kochia",kochia (Kochia scoparia); [16],70
same,"Plant response rating, Kochia",kochia (Kochia scoparia); [17],100
same,"Plant response rating, Kochia",kochia (Kochia scoparia); [18],0
same,"Plant response rating, Kochia",kochia (Kochia scoparia); [19],10
